Results taken from patent US20110263649A1, “CRYSTALLINE FORM OF LENALIDOMIDE AND A PROCESS FOR ITS PREPARATION” (GENERICS [UK] LIMITED, priority 2008, published 2011).
Where two headings read alike, the source gives them in different places.

Legend:
[1] = aqueous solubility of lenalidomide crystalline forms; conditions: forms prepared and tested by the inventors
[2] = as disclosed in WO 2005/023192; cited from earlier work
[3] = as indicated in WO 2005/023192; cited from earlier work

aqueous solubility [1]	SMILES	weight loss upon storage [2]	aqueous solubility [3]
High solubility in aqueous medium	Nc1cccc2c1CN(C1CCC(=O)NC1=O)C2=O (stereo not shown) [novel crystalline form, 3-(4-amino-1-oxo-1,3-dihydro-isoindol-2-yl)-piperidine-2,6-dione]	–	–
–	Nc1cccc2c1CN(C1CCC(=O)NC1=O)C2=O (stereo not shown) [form E, lenalidomide]	the greatest weight loss upon storage	–
poor aqueous solubility	Nc1cccc2c1CN(C1CCC(=O)NC1=O)C2=O (stereo not shown) [polymorphic mixture, lenalidomide]	–	poorly soluble in water
